Active and inactive are the calls of the source.
Tests used:
Assay type in all cases: functional, organism-based
Rhizomucor miehei = test: Antifungal activity against Mucor miehei by agar diffusion test
Bacillus subtilis = test: Antibacterial activity against Bacillus subtilis up to 100 ug/mL by agar diffusion test
Chlorella sorokiniana = test: Antialgal activity against Chlorella sorokiniana by agar diffusion test
Chlorella salina = test: Antialgal activity against Chlorella salina by agar diffusion test
Chlorella vulgaris = test: Antialgal activity against Chlorella vulgaris up to 100 ug/mL by agar diffusion test
Escherichia coli = test: Antibacterial activity against Escherichia coli up to 100 ug/mL by agar diffusion test
Staphylococcus aureus = test: Antibacterial activity against Staphylococcus aureus by agar diffusion test

Measured: Activity

Cc1ccc2c(c1)/C(=N\N=C1/CC(C)(C)Oc3ccc(C)cc31)CC(C)(C)O2
inactive: Rhizomucor miehei | Bacillus subtilis | Chlorella sorokiniana | Chlorella salina | Chlorella vulgaris | Escherichia coli | Staphylococcus aureus

— ChEMBL document CHEMBL1150136, “Limnazine, the first bacterial azine derivative from Bacillus sp. GW90a” (J Nat Prod, 2002)
